Reference: ChEMBL document CHEMBL4400574, “Chemical synthesis and biological activity of novel brominated 7-deazaadenosine-3',5'-cyclic monophosphate derivatives” (Bioorg Med Chem, 2019)

What was measured:
CNGA2/CNGA4/CNGB1 = CNGA2/CNGA4/CNGB1 (Rattus norvegicus, UniProt O35788+Q00195+Q64359); experiment: Activation of recombinant rat CNGA2/CNGA4/CNGB1b heterotetramer expressed in Xenopus laevis oocyte assessed as increase in current amplitude by patch-clamp electrophysiology method
[1] = biological target: T1, Cyclic nucleotide-gated channel alpha-2 (Rattus norvegicus, UniProt Q00195); experiment: Activation of recombinant rat CNGA2 expressed in Xenopus laevis oocyte assessed as increase in current amplitude by patch-clamp electrophysiology method
T1 sequence (Q00195 whole entry): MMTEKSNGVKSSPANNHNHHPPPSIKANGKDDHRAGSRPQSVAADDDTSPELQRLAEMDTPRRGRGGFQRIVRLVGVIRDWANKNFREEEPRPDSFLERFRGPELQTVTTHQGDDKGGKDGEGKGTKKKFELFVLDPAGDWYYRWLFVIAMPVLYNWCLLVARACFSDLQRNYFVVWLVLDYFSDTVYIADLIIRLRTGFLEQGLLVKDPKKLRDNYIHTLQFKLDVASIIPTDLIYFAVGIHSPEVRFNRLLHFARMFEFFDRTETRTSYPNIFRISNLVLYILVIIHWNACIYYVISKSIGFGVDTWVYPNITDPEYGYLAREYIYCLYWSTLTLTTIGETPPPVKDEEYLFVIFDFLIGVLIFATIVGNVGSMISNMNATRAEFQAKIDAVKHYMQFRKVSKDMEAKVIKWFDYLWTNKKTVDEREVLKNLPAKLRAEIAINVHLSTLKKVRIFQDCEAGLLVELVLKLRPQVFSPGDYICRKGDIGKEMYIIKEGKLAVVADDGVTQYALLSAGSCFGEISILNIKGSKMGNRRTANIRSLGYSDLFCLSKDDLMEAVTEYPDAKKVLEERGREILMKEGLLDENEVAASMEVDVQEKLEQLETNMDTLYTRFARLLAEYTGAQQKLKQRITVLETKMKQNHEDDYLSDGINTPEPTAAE

[2] = biological target: T2, Potassium/sodium hyperpolarization-activated cyclic nucleotide-gated channel 2 (Mus musculus, UniProt O88703); experiment: Activation of recombinant mouse HCN2 expressed in Xenopus laevis oocyte assessed as increase in current amplitude at -30 mV holding potential by patch-clamp electrophysiology method
T2 sequence (O88703 whole entry): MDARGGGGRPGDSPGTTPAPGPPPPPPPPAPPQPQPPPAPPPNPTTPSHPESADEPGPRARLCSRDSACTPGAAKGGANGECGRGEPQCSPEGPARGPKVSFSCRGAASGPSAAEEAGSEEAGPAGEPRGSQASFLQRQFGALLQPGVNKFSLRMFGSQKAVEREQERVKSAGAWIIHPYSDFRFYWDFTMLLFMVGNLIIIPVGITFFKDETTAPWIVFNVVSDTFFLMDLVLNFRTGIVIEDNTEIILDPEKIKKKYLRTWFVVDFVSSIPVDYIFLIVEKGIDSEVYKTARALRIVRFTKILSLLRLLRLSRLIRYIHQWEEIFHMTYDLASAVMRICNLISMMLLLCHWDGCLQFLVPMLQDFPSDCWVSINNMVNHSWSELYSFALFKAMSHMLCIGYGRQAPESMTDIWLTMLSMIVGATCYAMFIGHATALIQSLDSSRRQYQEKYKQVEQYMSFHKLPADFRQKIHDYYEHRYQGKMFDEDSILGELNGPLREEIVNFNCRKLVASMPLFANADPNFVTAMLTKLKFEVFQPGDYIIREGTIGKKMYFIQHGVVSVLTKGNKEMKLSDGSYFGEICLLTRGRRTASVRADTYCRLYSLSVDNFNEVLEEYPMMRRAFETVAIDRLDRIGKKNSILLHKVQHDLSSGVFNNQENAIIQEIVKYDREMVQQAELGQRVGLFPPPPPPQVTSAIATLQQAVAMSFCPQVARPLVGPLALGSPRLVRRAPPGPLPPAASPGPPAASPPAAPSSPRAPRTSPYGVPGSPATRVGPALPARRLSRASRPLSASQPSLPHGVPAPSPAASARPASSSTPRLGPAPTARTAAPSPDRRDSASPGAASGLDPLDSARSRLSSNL

[3] = biological target: T3, Rap guanine nucleotide exchange factor 3 (Homo sapiens, UniProt O95398); experiment: Inhibition of 8Fluo-cAMP binding to recombinant human His-tagged EPAC1 (157 to 881 residues) expressed in Escherichia coli measured after 5 mins by fluorescence polarization assay
T3 sequence (O95398 whole entry): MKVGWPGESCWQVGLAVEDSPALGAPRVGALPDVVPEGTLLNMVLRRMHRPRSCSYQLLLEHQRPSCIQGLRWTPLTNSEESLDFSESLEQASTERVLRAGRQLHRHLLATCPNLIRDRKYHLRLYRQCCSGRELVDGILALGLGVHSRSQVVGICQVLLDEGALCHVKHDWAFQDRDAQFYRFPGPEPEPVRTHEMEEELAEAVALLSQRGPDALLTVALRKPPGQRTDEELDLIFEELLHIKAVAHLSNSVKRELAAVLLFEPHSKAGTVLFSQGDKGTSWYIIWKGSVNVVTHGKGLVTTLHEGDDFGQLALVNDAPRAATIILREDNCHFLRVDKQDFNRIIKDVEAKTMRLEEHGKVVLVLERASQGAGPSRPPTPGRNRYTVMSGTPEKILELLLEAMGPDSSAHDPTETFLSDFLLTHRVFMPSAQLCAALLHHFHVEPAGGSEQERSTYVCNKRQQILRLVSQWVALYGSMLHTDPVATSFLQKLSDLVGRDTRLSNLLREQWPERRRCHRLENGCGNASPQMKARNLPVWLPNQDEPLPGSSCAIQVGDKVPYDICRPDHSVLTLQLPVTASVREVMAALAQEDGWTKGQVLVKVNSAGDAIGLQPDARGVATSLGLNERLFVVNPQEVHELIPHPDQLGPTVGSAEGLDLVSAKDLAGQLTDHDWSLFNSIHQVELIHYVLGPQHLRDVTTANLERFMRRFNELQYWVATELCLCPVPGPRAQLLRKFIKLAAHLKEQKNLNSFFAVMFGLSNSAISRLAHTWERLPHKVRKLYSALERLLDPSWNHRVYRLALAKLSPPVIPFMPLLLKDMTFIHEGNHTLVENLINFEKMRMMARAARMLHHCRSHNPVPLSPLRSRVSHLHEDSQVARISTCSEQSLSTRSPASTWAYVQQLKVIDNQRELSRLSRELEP

[4] = biological target: cAMP-dependent protein kinase type I-alpha regulatory subunit (Homo sapiens) (UniProt P10644)
Description: Activation of recombinant human PKAR1alpha expressed in Escherichia coli using Kemptide as substrate by spectrophotometric method

[5] = biological target: cAMP-dependent protein kinase type II-alpha regulatory subunit (Homo sapiens) (UniProt P13861)
Description: Activation of recombinant human PKAR2alpha expressed in Escherichia coli using Kemptide as substrate by spectrophotometric method

[6] = biological target: T4, Rap guanine nucleotide exchange factor 4 (Mus musculus, UniProt Q9EQZ6); experiment: Inhibition of 8Fluo-cAMP binding to DEP domain deficient mouse EPAC2 (280 to 998 residues) measured after 5 mins by fluorescence polarization assay
T4 sequence (Q9EQZ6 whole entry): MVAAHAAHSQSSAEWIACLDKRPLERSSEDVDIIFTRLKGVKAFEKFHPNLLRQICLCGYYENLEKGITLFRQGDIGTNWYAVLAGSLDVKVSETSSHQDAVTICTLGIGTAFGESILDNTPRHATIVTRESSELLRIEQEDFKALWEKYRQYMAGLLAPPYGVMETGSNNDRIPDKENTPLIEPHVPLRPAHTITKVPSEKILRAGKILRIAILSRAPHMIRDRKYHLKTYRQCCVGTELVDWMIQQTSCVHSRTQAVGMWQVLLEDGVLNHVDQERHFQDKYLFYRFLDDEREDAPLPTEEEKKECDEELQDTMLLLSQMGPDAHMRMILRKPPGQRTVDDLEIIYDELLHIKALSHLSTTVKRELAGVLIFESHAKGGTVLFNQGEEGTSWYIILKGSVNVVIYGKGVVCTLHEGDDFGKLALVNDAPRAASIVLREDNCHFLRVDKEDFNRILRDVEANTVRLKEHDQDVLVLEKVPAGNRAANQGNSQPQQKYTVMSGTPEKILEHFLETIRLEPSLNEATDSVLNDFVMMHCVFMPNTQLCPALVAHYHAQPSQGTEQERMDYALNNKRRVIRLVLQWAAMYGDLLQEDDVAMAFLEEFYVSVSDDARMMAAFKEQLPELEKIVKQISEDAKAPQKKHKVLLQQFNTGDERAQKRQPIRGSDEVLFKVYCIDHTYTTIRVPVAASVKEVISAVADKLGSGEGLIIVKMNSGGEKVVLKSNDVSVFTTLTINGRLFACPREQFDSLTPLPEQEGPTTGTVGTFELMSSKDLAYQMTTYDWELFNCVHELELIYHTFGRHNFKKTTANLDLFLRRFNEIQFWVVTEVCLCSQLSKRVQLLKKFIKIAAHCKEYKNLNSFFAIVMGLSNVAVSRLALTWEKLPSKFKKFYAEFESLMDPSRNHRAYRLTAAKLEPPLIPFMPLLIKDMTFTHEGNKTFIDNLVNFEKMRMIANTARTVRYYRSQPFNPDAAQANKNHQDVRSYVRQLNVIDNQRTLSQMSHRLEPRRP

Sequence of CNGA2/CNGA4/CNGB1 (Q64359 whole entry, one chain of several): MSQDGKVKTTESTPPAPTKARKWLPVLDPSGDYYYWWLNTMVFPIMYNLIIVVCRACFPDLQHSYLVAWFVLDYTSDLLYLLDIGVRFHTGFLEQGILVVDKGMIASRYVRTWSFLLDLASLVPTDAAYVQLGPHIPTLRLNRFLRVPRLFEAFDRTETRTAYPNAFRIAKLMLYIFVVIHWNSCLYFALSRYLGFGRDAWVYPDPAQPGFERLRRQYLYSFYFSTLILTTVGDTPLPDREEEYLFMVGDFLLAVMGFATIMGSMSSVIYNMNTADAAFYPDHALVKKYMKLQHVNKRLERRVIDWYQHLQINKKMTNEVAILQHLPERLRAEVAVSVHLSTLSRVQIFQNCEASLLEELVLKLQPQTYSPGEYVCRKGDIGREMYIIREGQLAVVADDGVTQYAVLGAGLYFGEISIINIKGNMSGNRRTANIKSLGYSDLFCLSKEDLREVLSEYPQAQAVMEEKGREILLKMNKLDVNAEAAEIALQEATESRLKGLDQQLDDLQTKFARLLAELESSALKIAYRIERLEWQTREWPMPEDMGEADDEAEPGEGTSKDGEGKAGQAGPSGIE
Sequence of CNGA2/CNGA4/CNGB1 (O35788 whole entry, one chain of several): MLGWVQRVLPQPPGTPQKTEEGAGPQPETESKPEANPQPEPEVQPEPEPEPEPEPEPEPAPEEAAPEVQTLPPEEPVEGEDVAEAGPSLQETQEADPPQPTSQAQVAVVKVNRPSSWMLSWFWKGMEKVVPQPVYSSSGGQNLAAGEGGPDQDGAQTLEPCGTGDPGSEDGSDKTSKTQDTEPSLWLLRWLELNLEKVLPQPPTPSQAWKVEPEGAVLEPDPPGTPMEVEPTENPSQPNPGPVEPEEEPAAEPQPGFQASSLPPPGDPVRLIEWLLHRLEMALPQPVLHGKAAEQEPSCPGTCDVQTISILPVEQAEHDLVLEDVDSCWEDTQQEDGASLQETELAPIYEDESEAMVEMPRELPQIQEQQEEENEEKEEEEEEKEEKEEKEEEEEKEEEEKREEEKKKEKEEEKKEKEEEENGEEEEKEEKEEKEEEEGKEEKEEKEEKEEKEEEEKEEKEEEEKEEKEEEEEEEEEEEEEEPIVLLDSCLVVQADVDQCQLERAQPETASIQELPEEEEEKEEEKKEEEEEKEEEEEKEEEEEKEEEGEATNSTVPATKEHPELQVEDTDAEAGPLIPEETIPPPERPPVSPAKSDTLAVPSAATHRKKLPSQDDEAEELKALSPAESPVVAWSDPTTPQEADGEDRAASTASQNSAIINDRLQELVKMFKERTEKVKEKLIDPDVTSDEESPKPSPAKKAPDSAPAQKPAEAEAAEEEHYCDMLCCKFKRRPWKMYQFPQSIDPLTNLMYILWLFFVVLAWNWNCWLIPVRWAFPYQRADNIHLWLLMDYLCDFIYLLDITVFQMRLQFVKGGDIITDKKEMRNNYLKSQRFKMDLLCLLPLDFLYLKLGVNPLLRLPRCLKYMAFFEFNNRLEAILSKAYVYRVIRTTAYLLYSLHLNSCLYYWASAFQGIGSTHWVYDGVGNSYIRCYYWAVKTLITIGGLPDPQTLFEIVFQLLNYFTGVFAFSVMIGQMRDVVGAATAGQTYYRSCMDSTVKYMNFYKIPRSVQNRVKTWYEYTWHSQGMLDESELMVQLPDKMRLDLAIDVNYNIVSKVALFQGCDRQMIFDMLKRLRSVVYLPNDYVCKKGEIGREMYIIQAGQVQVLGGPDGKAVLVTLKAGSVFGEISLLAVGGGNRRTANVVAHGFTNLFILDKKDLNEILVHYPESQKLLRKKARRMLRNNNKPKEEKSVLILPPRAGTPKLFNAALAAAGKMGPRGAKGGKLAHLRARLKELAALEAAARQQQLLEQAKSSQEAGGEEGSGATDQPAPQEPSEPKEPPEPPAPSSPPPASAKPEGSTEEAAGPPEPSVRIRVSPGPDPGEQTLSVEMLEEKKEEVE
Sequence of cAMP-dependent protein kinase type I-alpha regulatory subunit (Homo sapiens) (P10644 whole entry): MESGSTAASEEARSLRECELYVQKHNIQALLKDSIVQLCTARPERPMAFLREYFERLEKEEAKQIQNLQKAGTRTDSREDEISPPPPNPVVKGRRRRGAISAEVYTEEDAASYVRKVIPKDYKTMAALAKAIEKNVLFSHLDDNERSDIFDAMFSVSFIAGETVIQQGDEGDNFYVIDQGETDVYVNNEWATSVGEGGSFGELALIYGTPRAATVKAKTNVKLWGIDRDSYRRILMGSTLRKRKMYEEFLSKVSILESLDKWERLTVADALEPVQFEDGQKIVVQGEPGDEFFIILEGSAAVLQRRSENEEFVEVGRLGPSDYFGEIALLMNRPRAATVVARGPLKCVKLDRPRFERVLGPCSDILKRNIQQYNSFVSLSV
Sequence of cAMP-dependent protein kinase type II-alpha regulatory subunit (Homo sapiens) (P13861 whole entry, the tested form may be a part): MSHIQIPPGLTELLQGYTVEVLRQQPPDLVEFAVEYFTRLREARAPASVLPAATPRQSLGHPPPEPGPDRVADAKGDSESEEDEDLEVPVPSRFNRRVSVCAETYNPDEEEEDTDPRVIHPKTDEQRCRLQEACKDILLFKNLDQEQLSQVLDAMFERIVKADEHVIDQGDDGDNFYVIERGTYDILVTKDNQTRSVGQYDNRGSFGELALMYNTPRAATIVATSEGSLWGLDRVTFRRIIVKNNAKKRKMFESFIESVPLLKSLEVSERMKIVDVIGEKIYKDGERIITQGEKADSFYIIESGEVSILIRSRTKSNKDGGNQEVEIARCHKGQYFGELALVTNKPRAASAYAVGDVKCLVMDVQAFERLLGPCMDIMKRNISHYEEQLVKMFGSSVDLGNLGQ

EC50 (CNGA2/CNGA4/CNGB1) | EC50 [1] | EC50 [2] | EC50 [3] | Kact [4] | Kact [5] | EC50 [6] | SMILES
0.36 µM | 2.08 µM | 0.015 µM | 2.75 µM | 0.199 µM | 0.238 µM | 2.06 µM | Nc1ncnc2c1ccn2[C@@H]1O[C@@H]2COP(=O)(O)O[C@H]2[C@H]1O
1.6 µM | 15.4 µM |  | 1.09 µM | 0.056 µM | 0.088 µM | 0.78 µM | Nc1ncnc2c1nc(Br)n2[C@@H]1O[C@@H]2COP(=O)(O)O[C@H]2[C@H]1O
0.63 µM | 6.4 µM |  | 0.53 µM | 0.043 µM | 0.072 µM | 0.3 µM | Nc1ncnc2c1cc(Br)n2[C@@H]1O[C@@H]2COP(=O)(O)O[C@H]2[C@H]1O

SMILES | EC50 (CNGA2/CNGA4/CNGB1) | EC50 [1] | EC50 [2] | EC50 [3] | Kact [4] | Kact [5] | EC50 [6]
Nc1ncnc2c1c(Br)cn2[C@@H]1O[C@@H]2COP(=O)(O)O[C@H]2[C@H]1O | 0.12 µM | 0.54 µM |  | 2.54 µM | 0.028 µM | 0.097 µM | 2.36 µM
